Tests used:
Format in all cases: binding
panel of 442 kinases [1] = molecular target: T1, panel of 442 kinases (Homo sapiens, UniProt P07948); conditions: Compound Concentration 10 µM
T1 construct: purchased KINOMEscan
Excerpt: (§1) We assessed the selectivity of members of this scaffold using the KINOMEscan methodology across a near comprehensive panel of 442 kinases [[18,27]].

panel of 442 kinases [2] = molecular target: T2, panel of 442 kinases (Homo sapiens, UniProt P42685); conditions: Compound Concentration 10 µM
T2 construct: purchased KINOMEscan
Excerpt: as §1

panel of 442 kinases [3] = molecular target: T3, panel of 442 kinases (Homo sapiens, UniProt Q16620); conditions: kinase TRKB; compound concentration 10 µM
T3 construct: purchased KINOMEscan
Excerpt: as §1

panel of 442 kinases [4] = molecular target: T4, panel of 442 kinases (Homo sapiens, UniProt Q9Y6R4); conditions: Compound Concentration 10 µM
T4 construct: purchased KINOMEscan
Excerpt: as §1

T2 sequence (P42685 whole entry): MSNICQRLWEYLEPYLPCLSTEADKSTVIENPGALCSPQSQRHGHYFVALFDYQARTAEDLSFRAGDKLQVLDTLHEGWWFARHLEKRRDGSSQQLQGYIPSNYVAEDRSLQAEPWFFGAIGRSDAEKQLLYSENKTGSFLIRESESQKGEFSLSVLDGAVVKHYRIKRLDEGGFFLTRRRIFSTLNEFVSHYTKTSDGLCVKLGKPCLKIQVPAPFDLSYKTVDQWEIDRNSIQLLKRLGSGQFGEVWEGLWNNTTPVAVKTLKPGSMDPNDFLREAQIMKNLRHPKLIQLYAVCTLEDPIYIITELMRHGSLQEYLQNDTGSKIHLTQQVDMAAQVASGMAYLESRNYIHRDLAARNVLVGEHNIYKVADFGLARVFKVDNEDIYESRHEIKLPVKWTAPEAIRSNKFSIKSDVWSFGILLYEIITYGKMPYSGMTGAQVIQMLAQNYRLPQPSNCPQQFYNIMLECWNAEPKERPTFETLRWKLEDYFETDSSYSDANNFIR
T4 sequence (Q9Y6R4 whole entry): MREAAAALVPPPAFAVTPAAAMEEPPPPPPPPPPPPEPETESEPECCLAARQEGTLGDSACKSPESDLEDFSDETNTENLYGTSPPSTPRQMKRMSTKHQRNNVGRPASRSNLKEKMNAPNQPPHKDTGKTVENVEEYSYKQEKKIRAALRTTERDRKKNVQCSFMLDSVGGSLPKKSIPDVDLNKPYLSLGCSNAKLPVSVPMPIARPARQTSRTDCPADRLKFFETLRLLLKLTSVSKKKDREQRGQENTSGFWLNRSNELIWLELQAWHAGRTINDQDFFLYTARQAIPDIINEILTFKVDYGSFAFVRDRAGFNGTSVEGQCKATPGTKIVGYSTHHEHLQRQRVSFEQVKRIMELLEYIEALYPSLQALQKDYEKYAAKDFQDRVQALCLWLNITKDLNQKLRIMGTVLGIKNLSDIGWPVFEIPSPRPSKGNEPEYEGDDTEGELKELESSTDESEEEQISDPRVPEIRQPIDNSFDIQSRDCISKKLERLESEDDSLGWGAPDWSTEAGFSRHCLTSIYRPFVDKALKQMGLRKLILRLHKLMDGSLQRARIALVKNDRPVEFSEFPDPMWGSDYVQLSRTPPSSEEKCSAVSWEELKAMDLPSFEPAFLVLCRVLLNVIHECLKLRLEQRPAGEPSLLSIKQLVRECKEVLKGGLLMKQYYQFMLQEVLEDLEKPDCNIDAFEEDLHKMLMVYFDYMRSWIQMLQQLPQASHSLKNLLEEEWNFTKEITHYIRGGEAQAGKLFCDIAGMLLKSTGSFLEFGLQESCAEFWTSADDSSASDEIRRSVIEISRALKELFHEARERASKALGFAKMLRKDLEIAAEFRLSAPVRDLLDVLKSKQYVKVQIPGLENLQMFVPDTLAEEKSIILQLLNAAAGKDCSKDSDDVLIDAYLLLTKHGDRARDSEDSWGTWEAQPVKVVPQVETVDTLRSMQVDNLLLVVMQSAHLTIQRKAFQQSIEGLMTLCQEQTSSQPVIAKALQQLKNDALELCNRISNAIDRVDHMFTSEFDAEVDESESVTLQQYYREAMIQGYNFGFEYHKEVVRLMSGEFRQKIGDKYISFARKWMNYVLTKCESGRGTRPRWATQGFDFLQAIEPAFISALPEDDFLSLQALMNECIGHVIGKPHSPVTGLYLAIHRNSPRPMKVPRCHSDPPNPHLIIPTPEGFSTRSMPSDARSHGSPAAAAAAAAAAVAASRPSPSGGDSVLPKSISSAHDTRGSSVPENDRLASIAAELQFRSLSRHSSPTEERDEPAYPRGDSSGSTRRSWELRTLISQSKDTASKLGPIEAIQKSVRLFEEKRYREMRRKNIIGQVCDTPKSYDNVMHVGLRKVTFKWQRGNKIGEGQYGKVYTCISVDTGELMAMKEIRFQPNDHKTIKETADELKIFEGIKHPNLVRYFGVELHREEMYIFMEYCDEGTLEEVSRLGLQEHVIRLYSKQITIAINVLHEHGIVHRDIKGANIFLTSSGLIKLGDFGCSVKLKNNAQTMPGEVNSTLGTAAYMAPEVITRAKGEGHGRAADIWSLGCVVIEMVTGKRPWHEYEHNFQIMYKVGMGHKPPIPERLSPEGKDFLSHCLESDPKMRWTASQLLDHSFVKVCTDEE
T3 sequence (Q16620 32-822): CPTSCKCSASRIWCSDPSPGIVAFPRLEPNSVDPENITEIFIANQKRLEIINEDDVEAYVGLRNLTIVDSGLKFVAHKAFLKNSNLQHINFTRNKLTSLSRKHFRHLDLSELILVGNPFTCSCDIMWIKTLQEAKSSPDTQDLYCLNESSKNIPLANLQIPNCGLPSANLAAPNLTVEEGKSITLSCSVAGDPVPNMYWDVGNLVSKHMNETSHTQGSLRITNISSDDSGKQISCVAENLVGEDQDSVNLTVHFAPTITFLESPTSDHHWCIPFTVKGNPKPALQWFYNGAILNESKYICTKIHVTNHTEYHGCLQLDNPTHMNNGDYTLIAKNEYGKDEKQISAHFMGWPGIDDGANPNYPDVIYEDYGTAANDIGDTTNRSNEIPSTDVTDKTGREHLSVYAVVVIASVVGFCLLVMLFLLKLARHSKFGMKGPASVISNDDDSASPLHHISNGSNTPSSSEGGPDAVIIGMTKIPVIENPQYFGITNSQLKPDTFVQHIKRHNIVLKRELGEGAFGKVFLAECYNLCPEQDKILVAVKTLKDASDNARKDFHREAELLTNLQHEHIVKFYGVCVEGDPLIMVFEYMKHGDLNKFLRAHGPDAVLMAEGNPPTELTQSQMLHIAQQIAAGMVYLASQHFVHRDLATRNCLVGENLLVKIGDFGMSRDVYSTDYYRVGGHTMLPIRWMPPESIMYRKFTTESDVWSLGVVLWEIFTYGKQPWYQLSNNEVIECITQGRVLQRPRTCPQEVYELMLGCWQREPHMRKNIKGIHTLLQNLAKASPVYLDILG
T1 sequence (P07948 whole entry): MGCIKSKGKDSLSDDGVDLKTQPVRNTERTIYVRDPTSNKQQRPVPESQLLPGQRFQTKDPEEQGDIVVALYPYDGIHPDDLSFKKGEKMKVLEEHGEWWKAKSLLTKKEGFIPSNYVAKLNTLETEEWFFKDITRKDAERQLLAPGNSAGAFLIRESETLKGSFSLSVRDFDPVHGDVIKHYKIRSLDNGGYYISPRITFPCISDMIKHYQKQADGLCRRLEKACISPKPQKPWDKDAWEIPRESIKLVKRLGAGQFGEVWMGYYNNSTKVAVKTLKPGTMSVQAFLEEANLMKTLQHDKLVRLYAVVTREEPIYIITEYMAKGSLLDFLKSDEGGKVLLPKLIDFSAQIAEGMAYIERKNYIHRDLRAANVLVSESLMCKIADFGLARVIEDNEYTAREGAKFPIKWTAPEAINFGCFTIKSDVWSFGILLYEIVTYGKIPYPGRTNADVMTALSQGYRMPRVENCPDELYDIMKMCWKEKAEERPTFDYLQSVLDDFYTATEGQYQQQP

Structure (SMILES) | KINOMEscan: LYN (panel of 442 kinases [1]) | KINOMEscan: FRK (panel of 442 kinases [2]) | % Ctrl, TRKB (panel of 442 kinases [3]) [% Ctrl] | KINOMEscan: MAP3K4 (panel of 442 kinases [4])
COc1cc(C(=O)N2CCC(N3CCN(C)CC3)CC2)ccc1Nc1ncc2c(n1)N(C)c1ccccc1C(=O)N2C [15 (LRRK2-IN-1)] | 100 | 34 | 100 | 100
COc1cc(C(=O)N2CCC(N3CCN(C)CC3)CC2)ccc1Nc1ncc2c(n1)N1CCc3cccc(c31)C(=O)N2C [Compound 24] | 83 | 56 |  | 
COc1cc(C(=O)N2CCC(N3CCN(C)CC3)CC2)ccc1Nc1ncc2c(n1)N(C1CCCC1)c1ccccc1C(=O)N2C [Compound 25, 11-cyclopentyl-2-((2-methoxy-4-(4-(4-methylpiperazin-1-yl)piperidine-1-carbonyl)phenyl)amino)-5-methyl-5H-benzo[e]pyrimido[5,4-b][1,4]diazepin-6(11H)-one] | 85 | 24 | 83 | 100
CCOc1cc(C(=O)N2CCC(N3CCN(C)CC3)CC2)ccc1Nc1ncc2c(n1)N(C1CCCC1)c1ccccc1C(=O)N2C [Compound 26] | 100 | 87 | 100 | 100

— PMC3914206
